# Experimental data reported in patent US7662863B2, “Therapeutic agent for the use in reducing alcohol intoxication and reducing or eliminating the negative side effects associated with alcohol ingestion” (priority 2003, dated 2010).
# How the values were obtained:
# [1] = Blood alcohol level (BAC test strip) in human subjects after alcohol consumption, glucarate versus placebo; assay type: in vivo; conditions: twenty subjects
# Text: (§1) Twenty subjects, currently taking no form of d-glucarate, were recruited for the evaluation. On two separate occasions (at least 5 days apart) the subjects voluntarily consumed alcoholic beverages. The amount ingested was at their discretion, however it was the exact same about on both occasions and roughly over the same duration (+/−½ hour).
# (§2) On the first occasion, the subject was asked to take a placebo, while on the second occasion the subject was asked to take d-glucarate. The subjects were not informed what they were taking on either occasion, or of the difference between the placebo and chemical compound.
# On the first occasion the placebo was administered prior to alcohol ingestion, after alcohol ingestion then 8 hours following ingestion.
# A BAC was used to determine the Blood alcohol level after consumption then 8 hours later.
# (§3) On the second occasion 1000 mg of Potassium Hydrogen Glucarate was administered before alcohol consumption, then 500 mg after alcohol consumption, then 1000 mg 8 hours later.
# A BAC test strip was used to determine the Blood alcohol level after consumption then 8 hours later.
# hangover symptoms = test: Subject questionnaire on hangover symptoms and overall feelings after alcohol consumption, glucarate versus placebo; assay type: in vivo, human; conditions: twenty subjects, questionnaire 12-14 hours after each occasion
# Text: as §1, §2, §3
# Referring to FIG. 2, 12-14 hours after each occasion the subjects filled out the questionnaire to reflect each subject's observation of hangover symptoms. A 1 on the scale represents the most severe of symptoms, and a 5 represents neutral feeling or no symptom. The black circle indicates the average on the 20 subjects studied.
# Referring to FIG. 3, the last parameter measured was the subjects overall feelings, a rating of 1 being the most unpleasant to a rating of 5 representing the most pleasant of each subject's typical feeling.
smiles,measurement,setting,value
"O=C(O)[C@@H](O)[C@@H](O)[C@H](O)[C@@H](O)C(=O)[O-].[K+] [glucarate compound, Potassium Hydrogen Glucarate]",decrease in the total level of recirculating alcohol relative to a placebo,"[1]; after rest and a duration of 8 hours, 1000 mg before and 500 mg after alcohol consumption",55%
same,reduction in the amount of alcohol recirculating within the blood stream relative to a placebo,"[1]; immediately after alcohol consumption, 1000 mg before alcohol consumption, oral",18%
same,"hangover symptoms and overall feelings, average index on scale 1-5",hangover symptoms,reduced the subjects' hangover tendencies
